Data on six compounds can be found in US20030119797A1, “Methods for selective immunomodulation” (priority 2001, published 2003).

The subject of data set [1] is mixed-lymphocyte reaction. As to the kind of experiment: mixed-lymphocyte reaction (MLR) assay. The format is cell-based, mouse. The text has this:
In addition to the IL-2 reporter gene assay, the concentration of immunosuppressants, such as pimecrolimus and FK506 can be measured by the mixed-lymphocyte reaction (see Meo, “The MLR in the Mouse”, Immunological Methods, Lefkovits and Pernis, Eds., p. 227 Academic Press, NY).

In data set [2] the test system is systemic immune responses. As to the kind of experiment: Models of systemic immunosuppression (graft-versus-host reaction, antibody formation to sheep red blood cells, kidney transplantation). It is filed as in vivo, rat. The text has this: Pimecrolimus (also called ASM981 and ELIDEL®) is an ascomycin macrolactam-derivative with anti-inflammatory properties, chemical name is 33-epichloro-33-desoxy-ascomycin. Pimecrolimus is an ascomycin macrolactam-derivative developed originally for topical and oral treatment of inflammatory skin diseases such as atopic dermatitis and psoriasis. Pimecrolimus binds to macrophilin-12 and inhibits the Ca-dependent phosphatase calcineurin. As a consequence, it inhibits T cell activation and blocks the transcription and release of both Th1 and Th2 inflammatory cytokines. […] Tachyphylaxis has not been observed.

Data set [3] has as its system CYP3A enzyme subfamily. As to the kind of experiment: Elimination / metabolism of pimecrolimus. The format is in vitro ADME.
Data set [4] has as its system antigen-induced pulmonary eosinophilia. As to the kind of experiment: Rat model of asthma: antigen-induced pulmonary eosinophilia in actively sensitized Brown Norway Rats. The format is in vivo. The following applies: single and multiple challenge models.
Description: Another study looked at the effects of oral administration of pimecrolimus on antigen-induced pulmonary eosinophilia in actively sensitized Brown Norway Rats.
For data set [5] the following is noted: human, in vivo. Here is the method:
In this study pimecrolimus was rapidly absorbed with a median tmax across all the dose groups and collection days of between 0.8 and 2.0 hours. […] There was no effect of age or weight on the apparent clearance of pimecrolimus.

For data set [6], the system named is allergic contact dermatitis (ACD). As to the kind of experiment: Rat model of allergic contact dermatitis (ACD). It is filed as in vivo. The conditions noted are these: oral, same doses.
Data set [7] concerns promoter for human IL-2. As to the kind of experiment: IL-2 reporter gene assay. The format is cell-based. The following applies: read-out: IC50 (concentration required for 50% inhibition).
Description: The reporter gene is any gene expressing a readily observable product, e.g., an enzyme marker such as β-galactosidase or luciferase, or any other suitable enzyme marker. For example, where the enzyme marker is β-galactosidase, the reporter gene is, e.g., a bacterial lacZ gene; where the enzyme marker is luciferase, the gene is, e.g., a Phorinus luciferase gene. […] The promoter gene is a promoter gene for a cytokine or protein for which transcription is stimulated or suppressed by the drug to be monitored.
Blood samples from the patient are diluted, their effect on gene expression in the above described system is measured, and the assay is standardized using known concentrations of the immunosuppressive material.
Data set [8] deals with allergic contact dermatitis (ACD). As to the kind of experiment: Skin inflammation and lymph nodes during sensitization and elicitation phase of ACD. The format is in vivo.
For data set [9] the following is noted: in vivo, po.
The test system of data set [10] is psoriatic patients. The conditions noted are these: human, in vivo.
Protocol: A clinical study was initiated with an oral formulation of pimecrolimus to treat psoriatic patients. Pimecrolimus was evaluated as treatment for psoriasis using an oral dose of 60 mg (30 mg b.i.d) during a 4-week clinical study. The cohort included 10 patients; 8 received the treatment and 2 received a placebo.
The dose used in the study was 60 mg/day, given as 30 mg b.i.d. To make this dose the 20 mg tablets were cut in half using a special cutter (Tablettenteiler NR.96) so as to obtain 30 mg of pimecrolimus or a matched amount of placebo.
In this study the relationship of trough concentration to clinical results was also determined.
Data set [11] relates to SCID mice reconstituted with CD4+CD45RBHi T cells (SCID-IBD). As to the kind of experiment: SCID-IBD mouse model, treatment started the day after T cell transfer. The format is in vivo. The text has this: It is known that the transfer of syngeneic, naive T lymphocytes (CD4^+CD45RB^Hi) into SCID mice results in a severe colitis and wasting disease, SCID-IBD.
In this study, SCID mice reconstituted with CD4^+CD45RB^Hi T lymphocytes were used. These mice are known to develop chronic colitis with characteristics similar to human IBD, as described above.
[…] […] BW was monitored throughout. On termination, blood was withdrawn, spleen, mesenteric lymph nodes (MLN) and colon were removed. Serum haptoglobin levels were measured (ELISA), colitis was assessed histologically and lymphocyte and neutrophil numbers were calculated from FACS analysis of blood, spleen and MLN cell suspensions.
In order to determine the efficacy of ASM981 treatment in preventing intestinal mucosal damage in SCID-IBD mice, a histological examination of the colon sections was performed according to defined morphological parameters. All colon sections were assessed according to a scheme awarding degrees of severity governed by the extent of cell infiltration and inflammation with a score of 8 being the maximum.

For data set [12], the system named is allergen induced airway eosinophilia. As to the kind of experiment: Mouse model of asthma: aeroallergen induced eosinophil influx into the lungs of sensitized mice. It is filed as in vivo.
Data set [13] has as its system SCID mice reconstituted with CD4+CD45RBHi T cells (SCID-IBD). As to the kind of experiment: SCID-IBD mouse model, delayed treatment of established IBD. It is filed as in vivo. The following applies: 100 mg/kg/day p.o. started after 7, 14 or 21 days, until 41 days. The procedure:
In order to determine if pimecrolimus is also effective once IBD is established, SCID mice were treated with pimecrolimus at a dose level of 100 mg/kg/day at days 7, 14 or 21 following the transfer of the disease causing CD4^+ T cells. The study was terminated after 41 days, i.e., the mice were treated for 33, 26 and 19 days, respectively. The results are shown in FIGS. 10-12, and described below.
SCID mice were reconstituted with 2×10^5 CD4^+CD45RB^Hi T cells and treatment with pimecrolimus (100 mg/kg/day p.o.) started after 7, 14 or 21 days and continued daily until 41 days. Treatment with the placebo formulation started after 7 days. BW was monitored once a week for the first 2 weeks and then twice weekly. Data are expressed as mean percent BW relative to the weight on day 0±s.e.m. for n=9 (PBS), n=8 (ASM(7d) & ASM(21d) and n=7 (ASM(14d) and placebo) mice per group. PBS refers to the non-transferred mice which have been pooled with regard to percent BW values since no treatment dependent changes were found. p<0.01 relative to the placebo-treated group at 41 days.
SCID mice were reconstituted with 2×10^5 CD4^+CD45RB^Hi T cells and treatment with pimecrolimus (100 mg/kg/day p.o.) started after 7,14 or 21 days and continued daily until 41 days. […] Data are expressed as mean haptoglobin (mg/mL)±s.e.m. for n=9 (PBS), n=8 (ASM(7d)) and n=7 (ASM(14d), ASM(21d) and placebo) mice per group. […]

Data set [14] has as its system gene expression in blood cells. The following applies: days 13 or 14 vs baseline, 30 mg b.i.d. oral.
Protocol: Pimecrolimus was evaluated as treatment for psoriasis using an oral dose of 60 mg (30 mg b.i.d) during a 4-week clinical study. The cohort included 10 patients; 8 received the treatment and 2 received a placebo. Blood samples were collected before the first administration to establish the gene expression baseline and on days 13 or 14 after treatment with pimecrolimus or placebo and submitted to gene expression analysis in order to gain insights into the mechanisms of action of the compound.
The RNA from blood samples drawn from each patient in the study was extracted and tested on individual DNA microarrays, thus allowing, for each patient, a comparison of gene expression before and after pimecrolimus treatment. […] Genes that were consistently modulated were sorted in functional categories.
A short description of data set [15]: in vivo. The conditions noted are these: rat, po, 25 mg/kg. Here is the method:
In another study designed to explore the differences between pimecrolimus and FK506 and to determine whether these differences might be associated with a different tissue distribution, the exposure to pimecrolimus and FK506 in various organs after oral administration were measured. Animals received 2 oral doses of 25 mg/kg in an interval of 2 hours. […] Pimecrolimus was found consistently to have a higher skin/blood concentration ratio than FK506 (2 hours: 7.3 vs. 2.8; 6 hours: 13 vs. […]; 24 hours: 36 vs. 6.0). The AUC0-24h in skin calculated for pimecrolimus was twice as high as with FK506.
These distribution characteristics are relevant not only for oral, but also for topical application, as the compound enters systemic circulation after permeation through the skin.

The test system of data set [16] is IBD patients. The conditions noted are these: cited from earlier work.

Entries after “also recorded” stand apart in the source; their conditions may differ. Read-outs that look alike come from different tables or passages of the source.

The compound “33-epichloro-33-desoxy-ascomycin [Pimecrolimus]” registered an IC50 in [1] of 9 nM. The “therapeutic window of anti-inflammatory activity in the skin versus systemic immunosuppression as compared to FK506” value in data set [2] (rats, q.d., s.c.) was “clearly increased therapeutic window”. Besides, the “systemic immunosuppressive effects compared to CyA or FK506” value in data set [2] (transplantation and vaccination models) is “only a low potential to impair systemic immune responses; also recorded: minimal general systemic immunosuppressive effects”. For the same compound, the route of elimination result in data set [3] was “predominantly via metabolism involving an oxidative mechanism catalyzed by the CYP3A enzyme subfamily”. Moreover, in data set [4], the “allergen induced airway eosinophilia and IL-4 cytokine production” value was “inhibit”. Besides, the time to steady-state in data set [5] lay in the range of 6 to 13 days. Moreover, in data set [5] (po), the “dose dependence of Cmax and AUCτ” value is listed as “dose proportional”; the “effect of age or weight on the apparent clearance” value is “no effect”; the “trough concentration associated with a significant clinical response in the target epithelial tissue” value is at least 7 ng/mL. Moreover, the “AUCτ,b Mean ± SD” value in data set [5] (po, 10 mg) is given as 102.8 ± 41 .4 ng · h/mL. Also, in data set [5] (po, 20 mg), the “Cmax,b Mean ± SD” value is listed as 42 4 ± 10.8 ng/mL. For the same compound, in [6], the “efficacy compared to FK506” value was “superior”. In data set [7], the IC50 is 1.5 nM. Besides, in [8], the “primary site of action” value is reported as “primarily interferes with inflammation in the skin”. In [9], the drug accumulation result is listed as “does not lead to drug accumulation in the blood or tissues”. In addition, in data set [10], the “change in physical examination, blood pressure, electrocardiogram, safety laboratory tests or renal function” value is reported as “no clinically significant change was observed” and the “serious adverse side effects” value was “no serious adverse side effects in any patient”. In data set [11] (30 mg/kg/day p.o.), the “colitis, histological examination of colon sections” value (“colitis, histological examination” below) is on record as “moderate to severe inflammation”. The “colitis, histological examination” value in data set [11] (60 mg/kg/day p.o.) was “moderate”. In addition, the “inhibition of lymphocyte numbers in blood, spleen and MLN” value in data set [11] (100 mg/kg/day) is listed as “not observed”. In addition, in data set [11] (100 mg/kg/day group), the “mice with macroscopically normal feces” value is listed as “Approximately half of the mice”. In addition, in [11] (100 mg/kg/day p.o.), the “colitis, histological examination” value is given as “only mildly inflamed colons” and the “neutrophil infiltration into the colon (myeloperoxidase activity in colon homogenates)” value is recorded as “completely blocked”. The “loss of BW associated with the disease” value in data set [11] (oral, 4 weeks, dose range 30-100 mg/kg/day, dose-responsive) is on record as “prevented the severe loss of BW”. Further, in data set [11] (p.o., 30-100 mg/kg/day), the diarrhea entry is on record as “improved in a dose-dependent fashion” and the “severe colitis relative to placebo-treated SCID-IBD mice” value is given as “significantly inhibited”. Moreover, the “allergen induced airway eosinophilia and IL-4 cytokine production” value in data set [12] (mouse, single and multiple challenge models) is on record as “inhibit”. In addition, in [12] (sensitized mice, oral administration), the “eosinophil count in the lung and eosinophil peroxidase activity” value was “able to reduce”. Also, in data set [13], the “blood and spleen neutrophilia associated with established/ongoing colitis” value is recorded as “strongly inhibits”; the “loss of BW associated with established/ongoing mild to severe colitis” value is listed as “highly-effective in reversing the loss of BW”. For the same compound, in data set [14], the “expression of Kallistatin” value is “up-regulated”; the “expression of asthma related genes (RANTES, GALECTIN-3, Thromboxane A2 receptor, Glutathione peroxidase)” value is “specifically and significantly down-regulated”; the “expression of genes necessary for chemotaxis and cellular migration (LFA-1, P-selectin ligand, L-selectin)” value is reported as “dramatic down-regulation”; the “expression of genes of the Macrolactam target pathway (macrophilin 12), cellular activation and proliferation (Histone2, Histone 3.3, cyclin D2)” value is “down-regulate”. Besides, the “expression of inflammatory mediators (Leukotriene A4 hydrolase, prostaglandin endoperoxide synthase)” value in data set [14] is reported as “strongly down regulate”. For the same compound, in data set [15], the “AUC0-24h in skin relative to FK506” value is listed as “twice as high”; the “exposure in all other tissues, including blood, lymph nodes and kidney” value is on record as “lower than to FK506”.

Regarding `Cn1cnc([N+](=O)[O-])c1Sc1ncnc2nc[nH]c12` [AZA, Azathioprine, reference compound], in data set [16] (human, in vivo), the “patients who get pancreatitis or more severe allergic reactions” value is 3-15%.

`O=C(O)c1cc(/N=N/c2ccc(S(=O)(=O)Nc3ccccn3)cc2)ccc1O` [Sulphasalazine, reference compound]: the “healthy control subjects reporting side effects related to the sulphapyridine moiety” value in data set [16] (healthy control subjects) was at most 80%. Moreover, in data set [16] (patients), the “patients reporting side effects related to the sulphapyridine moiety” value is recorded as “up to 45%”.

For the compound `C[C@@H]1C[C@H]2[C@@H]3CCC4=CC(=O)C=C[C@]4(C)[C@@]3(F)[C@@H](O)C[C@]2(C)[C@@]1(O)C(=O)CO` [dexamethasone, Dexamethasone, reference compound], in [11] (3 and 10 mg/kg/day p.o.), the “BW at the doses needed to inhibit colitis” value was “steroid-related accelerated loss in BW”.

With “Infliximab: chimeric anti-TNF alpha antibody”, the “patients in whom remission is achieved” value in data set [16] (CD patients, infusion) is listed as “up to 60%”. For the same compound, the “patients who develop side effects” value in data set [16] (e.g., nausea, upper respiratory tract infections, abdominal pain and headache) was “up to 60%”. Further, in [16] (human, in vivo), the “patient population which develops human anti-chimeric antibodies” value is listed as 13-30% and the “patients who suffered serious infusion reactions” value was “Sixteen percent”.

In turn, `C=CC[C@@H]1/C=C(\C)C[C@H](C)C[C@H](OC)[C@H]2O[C@@](O)(C(=O)C(=O)N3CCCC[C@H]3C(=O)O[C@H](/C(C)=C/[C@@H]3CC[C@@H](O)[C@H](OC)C3)[C@H](C)[C@@H](O)CC1=O)[C@H](C)C[C@@H]2OC` [FK506, tacrolimus, reference compound] showed an IC50 in data set [1] (Mus musculus) of 1 nM. Also, the “primary site of action” value in data set [8] is listed as “acts primarily on the subcutaneous lymphoid tissue”. Moreover, in data set [15], the Kp at 2 h came out at 2.8 and the Kp at 24 h was 6. In addition, the skin/blood concentration ratio in data set [15] (6 h) was 1.6.
